Reference: patent publication US7618988B2, “Use of substituted aminomethyl chromans” (Merck Patentgesellschaft, priority 2001, dated 2009)

Tests used:
[1] = system: Parkinsonian cynomolgus monkey; assay: MPTP Parkinsonian cynomolgus monkey, parkinsonian symptoms (Laval University Disability Scale); assay type: in vivo
Source text: A typical animal model for idiopathic Parkinson's disease is the Parkinsonian cynomolgus monkey according to P. J. Blanchet et al., Exp. Neurology 1998; 153: 214-222. Monkeys render parkinsonian by repeated injections of 1-methyl-4-phenyl-1,2,3,6-tetrahydropyridine (MPTP). Parkinsonian symptoms are qualitatively assessed by the use of the Laval University Disability Scale (B. Gomez-Mancilla et al., 1993; Mov. Disord. 8: 144-150) measuring the following symptoms: posture, mobility, climbing, gait, holding food, vocalizing, grooming, social interaction.

[2] = system: cataleptic rat; assay: reversal of catalepsy in rats; assay type: in vivo; conditions: Rattus norvegicus, sc, subcutaneous, read-out: ED50 (calculated dose to reverse catalepsy by 50%)
Procedure: R represents hydrogen or a hydroxyl protecting group, and their optical isomers and pharmaceutically acceptable salts, in particular 2-({[5-(4-fluorophenyl)-pyridin-3ylmethyl]-amino}-methyl)-chroman-4-ol or an optical isomer or a physiologically acceptable salt or solvate thereof, excert an extraordinary potency in reversing catalepsy. Extrapyramidal motor side effects in e.g. rodents are measured by the ability of a drug to induce catalepsy. Catalepsy is defined as a state where an animal continues to remain in an unnormal (nonphysiological ‘uncomfortable’) posture for a long time (e.g.: M. E. Stanley and S. D. Glick, Neuropharmacology, 1996; 15: 393-394; C. J. E. Niemegeers and P. Janssen, Life Sci., 1979, […]). For example, if a hindpaw of a rat is placed on an elevated level, e.g. a platform elevated 3 cm above ground level, a normal rat immediately withdraws the hindpaw from the platform to the ground level. A cataleptic rat remains in this unnatural posture even for minutes.

[3] = system: Parkinsonian cynomolgus monkey; assay: MPTP Parkinsonian cynomolgus monkey, l-dopa-induced adverse effects; assay type: in vivo; conditions: MPTP monkeys chronically treated with l-dopa
Procedure: Treatment of adverse effects of conventional anti-Parkinsonian drugs as defined above are determined in a modification of the animal model of the Parkinsonian cynomolgus monkey according to P. J. Blanchet et al., Exp. Neurology 1998; 153: 214-222. Monkeys render parkinsonian by repeated injections of 1-methyl-4-phenyl-1,2,3,6-tetrahydropyridine (MPTP). The Parkinsonian monkeys are chronically treated with the standard 1-dopa therapy according to P. J. Blanchet et al., Mov. Disord., 1998; 13: 798-802. Longterm treatment with l-dopa induces extrapyramidal motor side effects and psychotic states which are both qualitatively and quantitatively, assessed by the Abnormal Involuntary Movement Scale (P. J. Blanchet et al., Mov. Disord. 1998; 13: 798-802) for different body parts (face, neck, trunk, each limb) and by rating for psychotic states by observing the monkey's attention, reactivity and mobility.

[4] = system: rats; assay: neuroleptics-induced muscle rigidity in rats; assay type: in vivo, rat; conditions: enhanced by haloperidol
Source text: A typical animal model is neuroleptics-induced muscle rigidity in rats according to S. Wolfarth et al., Arch. Pharmacol. 1992; 345: 209-212. Rats are challenged with the conventional neuroleptic drug haloperidol which enhances muscle tone. Muscle tone is electromechanically measured as the resistence to passive flexion and extension of the hind limb.

[5] = system: oxotremorine-induced tremor; assay: oxotremorine-induced tremor; assay type: in vivo; conditions: rating scale
Procedure: A typical animal model for drug-induced tremors is the oxotremorine-induced tremor (e.g. H. Hallberg and O. Almgren, Acta Physiol. Scand., 1987; 129: 407-13; J. G. Clement and W. R. Dyck, J. Pharmacol. Meth., 1989; 22: 25-36). Oxotremorine induces tremor which is measured by a rating scale.

[6] = system: reserpinized rat or mouse; assay: reserpinized rat or mouse (akinesia); assay type: in vivo; conditions: 24 h after reserpine
Procedure: A typical animal model is the reserpinized rat or mouse (e.g. M. S. Starr and B. S. Starr, J. Neural Transm.—Park. Dis. Dement. Sect., 1994; 7: 133-142; M. Gossel et al., J. Neural Transm.—Park. Dis. Dement. Sect., 1995; 10: 27-39; N. R. Hughes et al., Mov. Disord., 1998; 13: 228-233). Reserpine is a potent depleter of monoamines and produces nearly complete akinesia in both species. Prominent 24 h after application, the distance travelled and the time active is nearly zero as measured in conventional activity meters.

[7] = system: mutant dystonic hamster; assay: mutant dystonic hamster; assay type: in vivo; conditions: scoring system
Source text: A typical animal model is the mutant dystonic hamster according to A. Richter and W. Löscher, Prog. Neurobiol. 1998; 54: 633-677. In this genetically dystonic hamsters, dystonic attacks are provoked by taking the animal from the home cage and placing it on a balance. The dystonic syndrome consists of a sequence of abnormal movements, and the severity of the single symptoms is rated by a scoring system.

[8] = system: Weaver mutant mouse; assay: Weaver mutant mouse (locomotor activity); conditions: in vivo
Source text: Typical genetic models in mutant animals are the Campus Syndrome in the Pietrain pig according to A. Richter et al. (Exp. Neurology, 1995; 134: 205-213) or the Weaver mutant mouse according to J. R. Simon and B. Ghetti (Mol. Neurobiol., 1994; 9: 183-189). In the Campus Syndrome model, these mutant pigs show a high-frequency tremor when standing and during locomotion, but not while lying at rest. Assessment of tremor is made by accelerometric recording. In the Weaver mutant mouse, degenerative cerebellar atrophy is […] in association with tremor, gait instability, and toppling over the sides after a few steps.

[9] = system: rat; assay: striatonigral degeneration model in the rat (turning behavior); assay type: in vivo; conditions: induced by apomorphine or amphetamine
Source text: Another more recent animal model is the striatonigral degeneration approach in the rat according to G. K. Wenning et al., J. Neural Transm. Suppl., 1999; 55: 103-113. Rats receive an unilateral injection of 6-hydroxydopamine into the left medial forebrain bundle followed by an injection of quinolinic acid into the ipsilateral striatum inducing nigrostriatal degeneration. The degeneration results in turning behavior to a challenge with dopaminomimetics such as apomorphine or amphetamine. Turning behavior is measured by an automated recorder.

[10] = target: D2 receptors (Homo sapiens, UniProt P14416); assay: binding / inhibitory effect at dopamine D2 receptor
Sequence of D2 receptors (P14416 whole entry): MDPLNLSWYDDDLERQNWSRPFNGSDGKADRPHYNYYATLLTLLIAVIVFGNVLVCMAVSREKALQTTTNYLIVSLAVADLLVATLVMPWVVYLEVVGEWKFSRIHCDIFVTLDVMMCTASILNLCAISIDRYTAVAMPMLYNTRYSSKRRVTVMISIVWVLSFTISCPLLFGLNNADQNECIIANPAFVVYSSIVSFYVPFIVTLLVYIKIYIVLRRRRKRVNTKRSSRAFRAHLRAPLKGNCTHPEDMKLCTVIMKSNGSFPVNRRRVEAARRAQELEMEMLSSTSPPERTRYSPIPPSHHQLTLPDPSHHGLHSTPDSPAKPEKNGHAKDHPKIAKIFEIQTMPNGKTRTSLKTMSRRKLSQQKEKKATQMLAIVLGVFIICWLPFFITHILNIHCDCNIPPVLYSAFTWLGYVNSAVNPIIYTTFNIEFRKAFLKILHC

**Q.** `O[C@@H]1C[C@H](CNCc2cncc(-c3ccc(F)cc3)c2)Oc2ccccc21` [(2R,4R)-2-({[5-(4-fluorophenyl)-pyridin-3ylmethyl]-amino}-methyl)-chroman-4-ol] was tested. Which parkinsonian symptoms ([1]; Laval University Disability Scale) did it give?
**A.** Its parkinsonian symptoms is “reduce all the parkinsonian symptoms”.

**Q.** What about the total activity ([1]; cynomolgus monkey, in vivo) of the same molecule?
**A.** The total activity was “increased total activity”.

**Q.** What about the ED50 [2] of the same molecule?
**A.** The ED50 was ~2 mg/kg.

**Q.** What about the “choreiform and dystonic dyskinesias (Abnormal Involuntary Movement Scale)” value [3] of the same molecule?
**A.** The value was “reduce overall choreiform dyskinesias and dystonic dyskinesias”.

**Q.** What about the psychotic states [3] of the same molecule?
**A.** The psychotic states was “reduce”.

**Q.** What about the muscle tone [4] of the same molecule?
**A.** Its muscle tone is “decrease the muscle tone enhanced by haloperidol”.

**Q.** What about the oxotremorine-induced tremors [5] of the same molecule?
**A.** Its oxotremorine-induced tremors is “inhibit oxotremorine-induced tremors”.

**Q.** And the “akinesia (distance travelled and time active)” value [6]?
**A.** Its value is “dose-dependently reduce akinesia”.

**Q.** What about the “severity of dystonic symptoms” value [7] of the same molecule?
**A.** Its value is “dose-dependently reduce the severity of dystonic symptoms”.

**Q.** And the locomotor activity [8]?
**A.** Its locomotor activity is “enhance locomotor activity”.

**Q.** And the turning behavior [9]?
**A.** Its turning behavior is “dose-dependently antagonized”.

**Q.** What about the “binding to D2 receptors” value [10] of the same molecule?
**A.** The value was “no or only a very weak binding”.
